Data as given in patent publication US20070197654A1, “COMBINATION OF A CB1 RECEPTOR ANTAGONIST AND OF A PRODUCT WHICH ACTIVATES DOPAMINERGIC NEUROTRANSMISSION IN THE BRAIN, THE PHARMACEUTICAL COMPOSITIONS COMPRISING THEM AND THEIR USE IN THE TREATMENT OF PARKINSON'S DISEASE” (AVENTIS PHARMA S.A., priority 2001, published 2007).
Marks after values point to notes of the source that are not given here.

Key:
Assay type in all cases: in vivo
Reserpine-treated rats [1] = assay: Reserpine-induced akinesia in the rat: locomotor activity, CB1 antagonist po combined with quinpirole; conditions: locomotion recorded 1 hour
Procedure: (§1) The synergistic effect of the combination of one or more products which activate dopaminergic neurotransmission in the brain and of one or more CB1 antagonists in the treatment of Parkinson's disease was determined in a model of akinesia induced by reserpine in the rat according to the following protocol:
(§2) Male Sprague-Dawley rats were treated with reserpine administered subcutaneously at a dose of 3 mg/kg (1 ml/kg) in order to induce akinesia in the animal. 18 hours after this treatment, the locomotor activity of these animals was measured and recorded using an automatic system (Videotrack, France). The locomotion, expressed in centimeters, is estimated by a mean overall distance covered during this period (n=11-38 rats per group). The statistical analysis is carried out by variance analysis and a post-hoc comparison (if appropriate) using a Mann-Whitney or Dunnett test. A significant effect is recorded for p<0.05.
(§3) The studies by the oral route are carried out in a hydrophobic formulation solvent Labrafil/Labrasol (40/60%, w/w). These products are administered (in a volume of 1 ml/kg) one hour before the dopaminergic agonist. The recording of the locomotor activity begins 5 min after the intraperitoneal injection of the dopaminergic agonist and lasts 1 hour. The D1 dopaminergic agonist is 0.3 mg/kg C1-APB. The D2 dopaminergic agonist is 0.1 mg/kg quinpirole.
(§4) The results for the po administration of the CB1 antagonist at three different doses (1, 3 and 10 mg/kg/po) (Table 2) are expressed as percentage of increase with respect to the activity of quinpirole and a percentage of decrease with respect to the activity of a strong dose of C1-APB (SKF 82958).

Reserpine-treated rats [2] = assay: Reserpine-treated rat: locomotor activity, CB1 antagonist po combined with strong dose of C1-APB (SKF 82958); conditions: locomotion recorded 1 hour
Procedure: as §1, §2, §3, §4

Reserpine-treated rats [3] = assay: Reserpine-treated rat, dyskinesia model: locomotor activity, CB1 antagonist ip combined with strong dose of levodopa; conditions: CB1 antagonist 1 mg/kg i.p.; levodopa 120 mg/kg + benserazide 50 mg/kg i.p.; locomotion recorded 2.5 hours
Procedure: as §1, §2
(§5) The results for the ip administration of the CB1 antagonist (Table 1) are expressed as percentage of increase with respect to the activity of quinpirole and as percentage of decrease with respect to the activity of a very strong dose of levodopa.
The combination of the CB1 receptor antagonist and of a strong dose of levodopa (dyskinesia model) is produced in the following way: […]

Reserpine-treated rats [4] = assay: Reserpine-induced akinesia in the rat: locomotor activity, CB1 antagonist ip combined with quinpirole; conditions: CB1 antagonist 1 mg/kg i.p., locomotion recorded 1 hour
Procedure: as §1, §2, §5
The combination of a CB1 receptor antagonist and of a D2 dopaminergic agonist (quinpirole) is produced in the following way: […]

Cc1c(C(=O)NN2CCCCC2)nn(-c2ccc(Cl)cc2Cl)c1-c1ccc(Cl)cc1.Cl [SR141716A, N-(piperidin-1-yl)-5-(4-chlorophenyl)-1-(2,4-dichlorophenyl)-4-methyl-1H-pyrazole-3-carboxamide hydrochloride]
Combination with quinpirole (0.1 mg/kg ip): percentage of increase with respect to the activity of quinpirole (Reserpine-treated rats [1]; CB1 antagonist 1 mg/kg po one hour before quinpirole): +57%* NS
Combination with quinpirole (0.1 mg/kg ip): percentage of increase with respect to the activity of quinpirole (Reserpine-treated rats [1]; CB1 antagonist 3 mg/kg po one hour before quinpirole): +121%**
Combination with quinpirole (0.1 mg/kg ip): percentage of increase with respect to the activity of quinpirole (Reserpine-treated rats [1]; CB1 antagonist 10 mg/kg po one hour before quinpirole): +87%**
Combination with C1-APB (0.3 mg/kg ip): percentage of decrease with respect to the activity of a strong dose of C1-APB (Reserpine-treated rats [2]; CB1 antagonist 1 mg/kg po one hour before C1-APB): −32% NS
Combination with C1-APB (0.3 mg/kg ip): percentage of decrease with respect to the activity of a strong dose of C1-APB (Reserpine-treated rats [2]; CB1 antagonist 3 mg/kg po one hour before C1-APB): −58%*
Combination with C1-APB (0.3 mg/kg ip): percentage of decrease with respect to the activity of a strong dose of C1-APB (Reserpine-treated rats [2]; CB1 antagonist 10 mg/kg po one hour before C1-APB): −82%**
Combination with levodopa (120 mg/kg ip): percentage of decrease with respect to the activity of a very strong dose of levodopa (Reserpine-treated rats [3]): −61%*
Combination with quinpirole (62.5 μg/kg ip): percentage of increase with respect to the activity of quinpirole (Reserpine-treated rats [4]): +116%***
